Measured values from patent US20220241314A1, “COMPOSITIONS AND METHODS FOR TREATMENT OF HEPATITIS B VIRUS INFECTION” (priority 2019, published 2022).

Tested on: HBV cccDNA
Test: Decay kinetics of established cccDNA and HBsAg secretion under treatment from 3 dpi to 20 dpi
Format: cell-based, HBV (Genotype D)
Details: HepG2-hNTCP, treatment from 3 dpi through 20 dpi
Experimental: (5A) HBV infection and treatment schedule. On day 0 HepG2-hNTCP cells were infected with HBV at moi of 1000 Geq/cell, incubated for 24 hr, and media was replaced. On day three the cells were harvested or treated with DMSO, ETV (500 nM), F7 (10 μM), poly-U/UC (100 ng/ml), or with ETC combination with F7 or poly-U/UC, PAMP. Cells were harvested at the indicated points over a 20-day time course. (5B), (5C) DNA was isolated by Hirt extract and subjected to Southern blot analysis using an HBV-specific DNA probe. Percentage values below each lane indicate the relative amount of cccDNA compared to day three control prior to each treatment. The positions of mass markers are indicated. (5D) cccDNA levels were measured by RT-qPCR. Relative cccDNA values to mitochondrial DNA (MT-CO3) are shown. Statistical significance was determined using Student's t test. Data are presented as mean standard deviation (SD), *P<0.01, **P<0.005, ***P<0.001 and ns=non-significant (E) Half-life of cccDNA from RT-qPCR analyses was estimated from the simultaneous fitting of three replicates under each treatment strategy. C(t) is the % values of cccDNA at time ‘t’ post-treatment, C(0) is the % values of cccDNA at the start of the treatment. (5F) HBsAg across the time course for each treatment series. Statistical significance as determined using Student's t test. Data are presented as mean standard deviations (SD), **P<0.005, and ns=non-significant.
ETV is a nucleoside analog that prevents the viral reverse transcription and replication of new synthesized HBV DNAs, thereby preventing the replenishment of cccDNA by de novo formation. ETV was applied to HBV-infected cultures at a 100-fold IC50 (Langley, D. R., et al. (2007). Inhibition of Hepatitis B Virus Polymerase by Entecavir. Journal of virology 81, 3992-4001) thereby allowing for the measurement of cccDNA half-life under conditions in which levels are sustained only from the initial cccDNA pool. Cells were then harvested over a treatment time course, and DNA extracts were analyzed by Southern blot and qPCR assay. […] J Hepatol 69, 1231-1241). […] Enhanced cccDNA decay kinetics by F7 treatment was also confirmed by RT-PCR analysis (FIG. 5D). […] Thus, F7 and poly-U/UC PAMP impart the therapeutic decay of established cccDNA.
Reverse transcription quantitative real time qPCR (RT-qPCR) analysis: Total cellular RNAs were extracted from cells using TRIZOL reagent and the manufacturers protocol (Invitrogen). cDNA was synthesized from the purified RNA by both random and oligo (dT) priming using iScript select cDNA synthesis kit (Biorad, Inc.). For HBV cccDNA expression analysis, total DNA was extracted using the DNeasy kit (QIAGEN). For selective cccDNA PCR analysis, isolated DNAs were treated with 10 Units of T5 exonuclease (NEB) for 30 min in 10 μl of reaction volume in 37° C., followed by heat-inactivation at 95° C. for 5 min and 4-fold dilution with Nuclease-free water. For extra-cellular HBV DNA quantification, an external HBV plasmid standard was used to program the PCR (Ko, C., et al. (2018), supra).

C=C1[C@H](CO)[C@@H](O)C[C@@H]1n1cnc2c(=O)[nH]c(N)nc21 [ETV, Entecavir, reference compound]
production and secretion of HBsAg: Neither ETV nor X RNA treatment of cells had any effect
cccDNA levels over treatment time course (Southern blot, qPCR) (ETV 500 nM, F7 10 μM, poly-U/UC 100 ng/ml): stably maintained cccDNA levels over the time course
